Measured values from the supplement of paper PMC11061612.

What was measured:
Assay in all cases: Bliss excess, mean over the matrix (fraction); higher = more synergy
[1] = test system: K-562 (Chronic Myelogenous Leukemia)
How it was run: (§1)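 After 24 hours at 37°C and 5% CO2 in 1536-well plates, cells in DMEM/F12 or RPMI plus 10% FBS received two-drug dose matrices for 72 hours. Viability came from CellTiter-Glo 2.0 luminescence and was scaled as inhibition, anchored at 0 by vehicle wells and at 1 by blank wells. Combination Emax is taken as the second-highest inhibition in the matrix, and Bliss excess as the observed combination effect less EA + EB − EA·EB, with EA and EB the single-agent effects.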

[2] = test system: MKN28 (Gastric Carcinoma)
How it was run: as §1

[3] = test system: SW1417 (Colorectal Carcinoma)
How it was run: as §1

[4] = test system: KARPAS-45 (T-Lymphoblastic Leukemia)
How it was run: as §1

[5] = test system: NCI-H1792 (Lung Adenocarcinoma)
How it was run: as §1

[6] = test system: MOLT-16 (T-Lymphoblastic Leukemia)
How it was run: as §1

[7] = test system: COLO-678 (Colorectal Carcinoma)
How it was run: as §1

[8] = test system: GR-ST (B-Lymphoblastic Leukemia)
How it was run: as §1

[9] = test system: P12-ICHIKAWA (T-Lymphoblastic Leukemia)
How it was run: as §1

[10] = test system: BFTC-905 (Bladder Carcinoma)
How it was run: as §1

[11] = test system: EVSA-T (Breast Carcinoma)
How it was run: as §1

[12] = test system: KM12 (Colorectal Carcinoma)
How it was run: as §1

[13] = test system: HL-60 (Acute Myeloid Leukemia)
How it was run: as §1

TC-71 (Ewing's Sarcoma) = test system: TC-71 (Ewing's Sarcoma)
How it was run: as §1

[14] = test system: TOV-112D (Ovarian Carcinoma)
How it was run: as §1

CHP-212 (Neuroblastoma) = test system: CHP-212 (Neuroblastoma)
How it was run: as §1

WIL2-NS (Non-Cancerous) = test system: WIL2-NS (Non-Cancerous)
How it was run: as §1

[15] = test system: DiFi (Colorectal Carcinoma)
How it was run: as §1

[16] = test system: PANC-08-13 (Pancreatic Carcinoma)
How it was run: as §1

[17] = test system: KYSE-180 (Esophageal Squamous Cell Carcinoma)
How it was run: as §1

SMILES	Bliss excess [1]	Bliss excess [2]	Bliss excess [3]	Bliss excess [4]	Bliss excess [5]	Bliss excess [6]	Bliss excess [7]	Bliss excess [8]	Bliss excess [9]	Bliss excess [10]	Bliss excess [11]	Bliss excess [12]	Bliss excess [13]	Bliss excess (TC-71 (Ewing's Sarcoma))	Bliss excess [14]	Bliss excess (CHP-212 (Neuroblastoma))	Bliss excess (WIL2-NS (Non-Cancerous))	Bliss excess [15]	Bliss excess [16]	Bliss excess [17]
Cc1c2c(nn1C)CSCc1cc(n(C)n1)CSc1cc(c3ccccc3c1)OCCCc1c(C(=O)O)n(C)c3c-2c(Cl)ccc13 [AZD5991] + C1CN(CCC1(C(=O)N[C@@H](CCO)C2=CC=C(C=C2)Cl)N)C3=NC=NC4=C3C=CN4 [Capivasertib] (first compound max 1 µM, 7x7, partner max 3 µM)	0.0462	-0.0198	-0.0021	0.0484	-0.019	-0.0113	-0.0078	-0.0244	0.039	0.0226	-0.0074	0.0136	-0.0315	0.0256	-0.0181	-0.0066	-0.0169	0.0384	-0.0235	0.0306
COc1nnc2ccc(N3CCC(c4ccc(OCCN5CCN(C)C(=O)[C@H]5C)cc4)CC3)nn12 [AZD5153] + Cn1cnc2c(F)c(Nc3ccc(Br)cc3Cl)c(C(=O)NOCCO)cc21 [Selumetinib] (first compound max 1 µM, 7x7, partner max 10 µM)	-0.001	-0.0169	0.0496	0.0362	0.0577	-0.0353	-0.0382	-0.0578	0.0746	0.0113	-0.031	-0.0166	0.0707	0.0049	0.0303	-0.0285	0.0265	-0.0011	0.0924	0.046
COc1cccc(OCCCN)c1-c1cc(Nc2cnc(C#N)cn2)n[nH]1 [Prexasertib] + CCc1c2c(nc3ccc(O)cc13)-c1cc3c(c(=O)n1C2)COC(=O)[C@]3(O)CC [SN-38] (first compound max 1 µM, 7x7, partner max 0.3 µM)	0.0726	-0.0082	0.0029	0.0731	0.0204	0.0103	-0.0355	-0.106	-0.0253	-0.0004	0.224	0.0186	-0.0203	0.0187	0.0183	-0.094	-0.0234	-0.0153	0.0182	0.0525
NC1(C(=O)N[C@@H](CCO)c2ccc(Cl)cc2)CCN(c2ncnc3[nH]ccc23)CC1 [Capivasertib] + Cn1cnc2c(F)c(Nc3ccc(Br)cc3Cl)c(C(=O)NOCCO)cc21 [Selumetinib] (first compound max 10 µM, 7x7, partner max 10 µM)	0.0713	-0.05	0.0152	0.0796	0.0276	0.0683	-0.0398	-0.0428	0.15	-0.0047	-0.0157	0.016	0.021	0.0203	0.0272	-0.0277	0.0482	0.0049	0.0495	-0.0307
C[C@@H](c1ccc2nccn2c1)n1nnc2ncc(-c3cnn(C)c3)nc21 [Savolitinib] + Cc1c2c(nn1C)CSCc1cc(n(C)n1)CSc1cc(c3ccccc3c1)OCCCc1c(C(=O)O)n(C)c3c-2c(Cl)ccc13 [AZD5991] (first compound max 1 µM, 7x7, partner max 1 µM)	0.0145	-0.045	-0.0228	-0.0264	-0.0279	-0.0289	-0.0899	-0.037	0.02	-0.0523	-0.0233	-0.0256	-0.0266	-0.021	-0.0242	-0.0437	-0.0262	-0.0321	-0.0452	-0.0117
COc1nnc2ccc(N3CCC(c4ccc(OCCN5CCN(C)C(=O)[C@H]5C)cc4)CC3)nn12 [AZD5153] + Cc1c2c(nn1C)CSCc1cc(n(C)n1)CSc1cc(c3ccccc3c1)OCCCc1c(C(=O)O)n(C)c3c-2c(Cl)ccc13 [AZD5991] (first compound max 1 µM, 7x7, partner max 1 µM)	-0.0496	-0.0235	-0.0252	0.0139	-0.0008	-0.0072	-0.0476	-0.027	0.0813	-0.0056	0.003	-0.0473	-0.0038	0.0285	0.0347	-0.0281	-0.0255	-0.0066	0.0228	-0.0033
CC(=O)c1c(C)c2cnc(Nc3ccc(N4CCNCC4)cn3)nc2n(C2CCCC2)c1=O [Palbociclib] + Cc1c2c(nn1C)CSCc1cc(n(C)n1)CSc1cc(c3ccccc3c1)OCCCc1c(C(=O)O)n(C)c3c-2c(Cl)ccc13 [AZD5991] (first compound max 10 µM, 7x7, partner max 1 µM)	-0.0141	-0.0385	-0.0089	-0.0071	-0.0186	-0.0427	-0.0814	0.0096	-0.0467	-0.0167	-0.117	-0.0194	-0.0214	-0.0182	0.0428	0.0199	-0.0608	-0.0139	-0.0427	-0.0602
